Laboratory results as given in patent US20200375929A1, “METHODS AND COMPOSITIONS FOR THE TREATMENT OF DISEASES ASSOCIATED WITH CANCER, INFLAMMATION, OR IMMUNE RESPONSE” (Washington University, priority 2017, published 2020).

Columns and labels:
Assay type in all cases: cell-based, mouse
IL6, IL12, IL1b, TNFα = assay: Cytokine production in LPS-stimulated BMDMs (ELISA)
Procedure: BMDM were prepared from 6- to 12-week-old mice as described 1 and cultured in RMPI-1640 medium supplemented with 10% fetal bovine serum (FBS), 2 mM L-glutamine, and 100 U/mL penicillin-streptomycin and mouse recombinant M-CSF ([…], Peprotech). For experiments, cells were seeded at concentration 10^6 cells/mL in tissue culture plates of various formats. The cells were treated with DI (250 μM (unless stated otherwise), cat #592498, Sigma), DMF (50 μM (unless stated otherwise), cat #242926, Sigma), 3-(ethoxycarbonyl)but-3-enoic acid (3MI, 5 μM, Aris Pharmaceuticals Inc.), 4-ethoxy-2-methylene-4-oxobutanoic acid (MI, Aris Pharmaceuticals Inc.) for 12 h and activated with lipopolysaccharide (LPS; 100 ng/mL; E. coli 0111:B4, Sigma) for 1 h or as indicated. In some experiments cells were stimulated with combination of LPS (20 ng/mL) and IFN-γ (50 ng/mL; Peprotech). In some experiments cells were treated with α-tocopherol (AT, 10 μM; Sigma), MitoTEMPO (MT, 500 μM; Sigma), N-acetylcysteine (NAC, 1 mM, Sigma), ethylester of GSH (EtGSH; 1 mM, Santa Cruz) or buthionene sulfoximine (BSO, 500 μM, Sigma) alone or in combination with DI for 12 h. In some experiments BMDMs were treated with DI for 12 h and bafilomycin A (BafA, 100 nM, Sigma) or MG132 (10 μM, Selleckchem) were added 30 min before subsequent LPS stimulation.
Cytokines in cell supernatants were analyzed using DuoSet® ELISA kits according to manufacturer protocol (R&D Systems). The supernatants from BMDMs were diluted 1:4, from human blood monocytes 1:3.

eIF2α = eIF2α phosphorylation in BMDMs (western blot); conditions: DI
Procedure: BMDM were prepared from 6- to 12-week-old mice as described 1 and cultured in RMPI-1640 medium supplemented with 10% fetal bovine serum (FBS), 2 mM L-glutamine, and 100 U/mL penicillin-streptomycin and mouse recombinant M-CSF ([…], Peprotech). For experiments, cells were seeded at concentration 10^6 cells/mL in tissue culture plates of various formats. […]
Cells were lysed in RIPA Lysis Buffer System (Santa Cruz) and heat-denatured at 95° C. for 5 min in reducing sample buffer (BioRad). […] Non-specific binding was blocked with 5% skim milk (or 5% BSA when phospho-proteins were analyzed), and membranes were probed with primary antibodies specific to Nrf2 (#12721), HO-1 (#70081), IκBζ (mouse specific, #93726), IκBζ(#9244), ATF3 (#D2Y5W), IRAK1 (#4504; sensitivity of IRAK1 detection diminishes upon IRAK1 K63 ubiquitination), phospho-IKK (Ser176/180, #2697), p62/SQSTM1 (#5114), phospho-eIF2α (Ser51, #9721), eIF2α (#5324) from Cell Signaling; GAPDH (sc-25778), IκBα (sc-1643), ATF3 (sc-188), SDHA (sc-166909) from Santa Cruz; NQO1 (ab28947) from Abeam, followed by incubation with anti-rabbit-HRP (1:10,000; sc-2030) or anti-mouse-HRP (1:10,000; sc-2031) from Santa Cruz and Clarity western ECL substrate (Bio-Rad). […]

BMDMs = assay: Nascent protein synthesis (Click chemistry labeling) and proteomic profiling in BMDMs; conditions: DI, LPS 1 h, metabolic labeling, proteomics
Procedure: BMDMs were plated 2×10^6 cells per well in 6-well plates. Cells were either (1) treated with DI (250 μM) for 12 h and then stimulated with LPS (100 ng/mL) for 1 h, or (2) only stimulated with LPS (100 ng/mL) for 1 h, or (3) only treated with DI (250 μM) for 12 h, or (4) neither treated with DI nor LPS. Cells were then washed 3× with PBS and lysed in 200 μL of urea buffer (8 M urea, 75 mM NaCl, 50 mM Tris pH 8.0, 1 mM EDTA). Lysates were then cleared by centrifugation at 20,000 g and protein concentrations were determined by BCA assay (Pierce). 15 μg of total protein per sample were processed further. Disulfide bonds were reduced with 5 mM dithiothreitol and cysteines were subsequently alkylated with 10 mM iodoacetamide. Samples were diluted 1:4 with 50 mM Tris/HCl (pH 8.0) and sequencing grade modified trypsin (Promega) was added in an enzyme-to-substrate ratio of 1:50. After 16 h of digestion, samples were acidified with 1% formic acid (final concentration). […]
BMDMs were grown in 12-well plate, […] per well and treated with DI (250 μM) for 10 h. […] Total protein concentration was determined using RC/DC™ Protein Assay (Biorad). […] Proteins were separated on 4%-20% polyacrylamide gradient gels (BioRad) and biotinylated proteins were detected by western blot with streptavidin-HRP conjugate (1:1000, #554066, BD Pharmingen). […]

## C=C(CC(=O)OC)C(=O)OC [DI, dimethyl itaconate]
IL6, IL12, IL1b, TNFα; Atf3−/− BMDMs, DI, LPS 24 h
  IL-6 production in DI-treated Atf3−/− cells compared to WT: significantly increased IL-6 production
IL6, IL12, IL1b, TNFα; BMDMs pretreated 12 h, then LPS
  LPS-induced cytokine production: down-regulates production of IL6, IL12, and IL1b, but not TNFα
IL6, IL12, IL1b, TNFα; Nrf2-deficient BMDMs, DI, LPS 4 h
  DI-mediated IL-6 inhibition in Nrf2-deficient BMDMs: did not alleviate
eIF2α; Atf3−/− macrophages
  eIF2α phosphorylation in Atf3−/− macrophages: failed to increase eIF2α phosphorylation
eIF2α; WT macrophages
  eIF2α phosphorylation: marked increase
BMDMs
  global protein synthesis: did not affect protein synthesis globally
